For 23 compounds, logP results are on record in patent publication US11504310B2, “Aqueous microemulsion” (Firmenich SA, priority 2017, dated 2022).

A short description of the first data set: logP of fragrance raw materials and fragrances.
Details: not given
Usually logP stands for a log measure of how a compound divides between an organic and an aqueous phase. Consider `CCCC(C)C(=O)OCC` (racemic) [(+ −)-ETHYL 2-METHYLPENTANOATE], for which the log partition coefficient (logP) stood at 2.76.

`CCCCCCC1CCC(=O)O1` (racemic) [DECALACTONE CP, (+ −)-4-DECANOLIDE] displayed a logP of 2.72.

`C=CC(C)CCCC(C)(C)O` (racemic) [DIHYDROMYRCENOL PURE, (+ −)-2,6-DIMETHYL-7-OCTEN-2-OL] registered a log partition coefficient (logP) of 3.47.

`CC(=O)/C(C)=C/C1C(C)=CCCC1(C)C` (racemic) [ISORALDEINE 70 P, (+ −)-(3E)-3-methyl-4-(2,6,6-trimethyl-2-cyclohexen-1-yl)-3-buten-2-one]: the lipophilicity (logP) came to 4.84.

In turn, `CC1/C=C/CCCCCCCCCCC(=O)C1` (racemic) [MUSCENONE DELTA, (+ −)-(4E)-3-METHYL-4-CYCLOPENTADECEN-1-ONE] registered a lipophilicity (logP) of 5.75.

Compound `CCCCCC1(C)CCC(C)(C)C1=O` (racemic) [VELOUTONE, (+ −)-2,2,5-trimethyl-5-pentylcyclopentanone] gave a log partition coefficient (logP) of 4.34.

Compound `Cc1ccc2c(c1)OCC(=O)CO2` [CALONE ®, 7-methyl-2H-1,5-benzodioxepin-3(4H)-one] displayed a logP of 2.43.

`CC(C)(O)CCC1CCCCC1` [CORANOL, 4-CYCLOHEXYL-2-METHYL-2-BUTANOL] came in with a logP of 3.98.

For the compound `O=C1CCCCCCCCCCCCCCO1` [EXALTOLIDE ®, oxacyclohexadecan-2-one], the log partition coefficient (logP) was determined as 6.15.

Consider `CCOC(=O)CC1(C)OCCO1` [FRUCTONE ®, ETHYL 2-METHYL-1,3-DIOXOLANE-2-ACETATE], for which the log partition coefficient (logP) is 1.3.

Take `CC(C)=CCCC(C)=CCO` [GERANIOL LJ]: the lipophilicity (logP) is 3.47.

For the compound `COC(=O)/C=C/c1ccccc1` [METHYL CINNAMATE, METHYL (E)-3-PHENYL-2-PROPENOATE], the lipophilicity (logP) stood at 2.62.

Consider `COC(=O)c1c(C)cc(O)c(C)c1O` [MOUSSE CRISTAL, METHYL 2,4-DIHYDROXY-3,6-DIMETHYLBENZOATE], for which the log partition coefficient (logP) is 3.22.

`CC(C)=CC1CC(C)CCO1` (centres unmarked) [ROSE OXIDE, TETRAHYDRO-4-METHYL-2-(2-METHYL-1-PROPENYL)-2H-PYRAN]: the logP worked out at 3.58.

On to `CCC(=O)OC1CC2CC1C1CC=CC21` (centres unmarked) [VERDYL PROPIONATE, TRICYCLO[5.2.1.0(2,6)]DEC-3-EN-8-YL PROPANOATE], for which the log partition coefficient (logP) was 3.34.

Still in this data set, the particulars now being: single raw materials of fragrances F1-F4 (Tables 1-4).
As to “1-OXA-12/13-CYCLOHEXADECEN-2-ONE [HABANOLIDE ®]”, the lipophilicity (logP) is given as 4.88.

For 2/3-METHYLBUTYL ACETATE [AMYL ACETATE], the logP amounted to 2.26.

Compound `CCC(=O)OCC(C)(C)O[C@@H](C)[C@@H]1CCCC(C)(C)C1` [HELVETOLIDE ®, (+)-(1S,1′R)-2[1-(3′,3′-DIMETHYL-1′-CYCLOHEXYL)ETHOXY]-2-METHYLPROPYL PROPANOATE] had a lipophilicity (logP) of 5.51.

In the case of `CC1=CC(C)C(C=O)C(C)C1` (centres unmarked) [ISOCYCLOCITRAL], the log partition coefficient (logP) is recorded as 3.27.

For the compound `OCCCc1ccccc1` [PHENYLPROPYL ALCOHOL, 3-PHENYL-1-PROPANOL], the logP is 1.88.

Turning to “ALLYL (2/3-METHYLBUTOXY)ACETATE [ALLYL AMYL GLYCOLATE]”, the logP is 2.34.

The next data set is described as follows: physchem.
Details: not given
For the compound `CCC1CCC(=O)O1` (racemic) [GAMMA HEXALACTONE, (+ −)-4-HEXANOLIDE], the logP turned out to be 0.6.

For the compound `CCOc1cc(C=O)ccc1O` [ETHYL VANILLIN, 3-ethoxy-4-hydroxybenzaldehyde], the logP was 1.58.
